Here are results for eight compounds from ChEMBL document CHEMBL1129085.

Calls of active or inactive are those of the source. The rule behind the calls is not given here.

Assay [1] deals with T1, Estrogen receptor (Mus musculus) (UniProt O08537+P19785).
Description: Anti-uterotropic effect as inhibition of 0.06 ug/injection estrone-induced uterine weight gain in mice at 10 ug/injection dose; No
The target in assay [2] is T1, Estrogen receptor (Mus musculus). As to the kind of experiment: Uterotrophic effect in mice at 10 ug/injection dose; No. The class given is functional, tissue-based. The conditions noted are these: Uterus.
The target of assay [3] is Estrogen receptor (Rattus norvegicus) (UniProt P06211+Q62986). As to the kind of experiment: Binding affinity for rat uterine estrogen receptor relative to estradiol. The class given is protein assay.
Assay [4] addresses T1, Estrogen receptor (Mus musculus). As to the kind of experiment: Anti-uterotropic effect as inhibition of 0.06 ug/injection estrone-induced uterine weight gain in mice at 10 ug/injection dose; Yes. It counts as functional.

T1 sequence (O08537 whole entry, looked up): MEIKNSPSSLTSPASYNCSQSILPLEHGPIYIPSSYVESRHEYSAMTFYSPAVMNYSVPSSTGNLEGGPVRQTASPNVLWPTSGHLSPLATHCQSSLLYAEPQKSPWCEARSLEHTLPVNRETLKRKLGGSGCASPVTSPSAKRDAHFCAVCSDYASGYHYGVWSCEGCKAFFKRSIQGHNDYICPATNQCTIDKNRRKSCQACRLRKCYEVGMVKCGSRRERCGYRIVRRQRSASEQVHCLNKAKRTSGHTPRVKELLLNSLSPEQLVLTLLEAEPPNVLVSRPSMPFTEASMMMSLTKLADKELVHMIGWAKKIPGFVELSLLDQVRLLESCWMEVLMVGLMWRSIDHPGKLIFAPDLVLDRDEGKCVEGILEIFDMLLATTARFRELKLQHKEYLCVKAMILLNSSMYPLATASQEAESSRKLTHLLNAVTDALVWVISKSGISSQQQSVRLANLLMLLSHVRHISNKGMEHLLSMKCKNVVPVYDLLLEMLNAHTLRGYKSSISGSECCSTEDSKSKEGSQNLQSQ
T1 sequence (P19785 whole entry, looked up): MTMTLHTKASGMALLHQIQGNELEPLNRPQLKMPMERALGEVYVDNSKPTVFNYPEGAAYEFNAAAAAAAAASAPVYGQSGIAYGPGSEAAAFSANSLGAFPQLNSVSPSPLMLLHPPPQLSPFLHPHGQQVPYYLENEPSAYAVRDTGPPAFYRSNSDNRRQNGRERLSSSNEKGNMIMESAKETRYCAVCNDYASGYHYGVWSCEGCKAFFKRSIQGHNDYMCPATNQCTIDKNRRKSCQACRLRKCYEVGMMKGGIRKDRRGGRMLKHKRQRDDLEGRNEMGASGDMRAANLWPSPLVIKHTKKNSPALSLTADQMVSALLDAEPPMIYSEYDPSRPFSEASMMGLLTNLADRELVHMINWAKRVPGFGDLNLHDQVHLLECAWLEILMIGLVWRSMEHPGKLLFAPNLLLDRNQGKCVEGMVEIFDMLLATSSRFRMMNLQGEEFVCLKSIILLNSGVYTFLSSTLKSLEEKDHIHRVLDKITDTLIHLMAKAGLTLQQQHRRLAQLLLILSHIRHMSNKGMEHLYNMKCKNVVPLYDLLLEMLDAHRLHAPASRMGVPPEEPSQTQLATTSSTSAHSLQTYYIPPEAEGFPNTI

Regarding `CCCCN(C)C(=O)CCCCCCCCCCC1C[C@H](O)[C@@]2(C)CC[C@@H]3c4ccc(O)cc4CC[C@H]3[C@H]12` (some centres not stated), the Antiuterotrophic activity entry in assay [1] was “inactive”. Further, the Uterotrophic activity entry in assay [2] was “inactive”. In addition, the RBA in assay [3] worked out at 0.001%.

Consider `CCCCN(C)C(=O)CCCCCCCCCC[C@@H]1C[C@H](O)[C@@]2(C)CC[C@@H]3c4ccc(O)cc4CC[C@H]3[C@H]12`, for which the RBA in assay [3] is under 0.001%.

As for `CCCCN(C)C(=O)CCCCCCCCCC[C@@H]1Cc2cc(O)ccc2[C@H]2CC[C@]3(C)[C@@H](O)CC[C@H]3[C@H]12`, the Antiuterotrophic activity result in assay [4] is “inactive”. Also, the Uterotrophic activity entry in assay [2] was “inactive”. For the same compound, the RBA in assay [3] is 1.2%.

As to `CCCCN(C)C(=O)CCCCCCCCCC[C@H]1C[C@H](O)[C@@]2(C)CC[C@@H]3c4ccc(O)cc4CC[C@H]3[C@H]12`, the Antiuterotrophic activity result in assay [1] was “inactive”. In addition, in assay [2], the Uterotrophic activity result was “inactive”. In assay [3], this compound returned an RBA of 0.05%.

As for `CCCCN(C)C(=O)CCCCCCCCCCCC[C@@H]1C[C@H](O)[C@@]2(C)CC[C@@H]3c4ccc(O)cc4CC[C@H]3[C@H]12`, the Antiuterotrophic activity result in assay [1] was “inactive”. Further, the Uterotrophic activity entry in assay [2] is “inactive”. The same compound gave an RBA in assay [3] of under 0.001%.

Consider `CCCCN(C)C(=O)CCCCCCCCCC[C@]1(O)CC[C@H]2[C@@H]3CCc4cc(O)ccc4[C@H]3CC[C@@]21C`, for which the Antiuterotrophic activity result in assay [1] was “inactive”. In addition, in assay [2], the Uterotrophic activity entry is “inactive”. In assay [3], this compound showed an RBA of 0.01%.

Turning to `CCCCN(C)C(=O)CCCCCCCCC1C[C@H](O)[C@@]2(C)CC[C@@H]3c4ccc(O)cc4CC[C@H]3[C@H]12` (some centres not stated), the Antiuterotrophic activity result in assay [1] is “inactive”. For the same compound, in assay [2], the Uterotrophic activity entry was “inactive”. Also, the RBA in assay [3] was under 0.001%.

As for `CCCCN(C)C(=O)CCCCCCCCCCCC[C@H]1C[C@H](O)[C@@]2(C)CC[C@@H]3c4ccc(O)cc4CC[C@H]3[C@H]12`, in assay [1], the Antiuterotrophic activity result is “inactive”. The Uterotrophic activity result in assay [2] was “inactive”. This compound also came in with an RBA in assay [3] of under 0.001%.
